Source: publication PMC8863579, “Effects of pharmacological inhibition of the sodium‐dependent phosphate cotransporter 2b (NPT2b) on intestinal phosphate absorption in mouse and rat models” (Pharmacology Research & Perspectives, 2022)
“And” between values parts separate entries of the source, which are not always exact repeats. Equal values may be shown once.

Tests used:
[1] = biological target: T1, Human NPT2a (Homo sapiens, UniProt Q06495); assay: 33P-phosphate uptake in CHO cells expressing human NPT2a; format: cell-based
T1 construct: Full Length cDNA Cloning and Generation of Cell Lines Over-Expressing Human NPT2a, NPT2c, Pit1, and Pit2; host or cells: CHO-K1 / T-REx CHO, pJTI R4 CMV-TO, tetracycline-induced
T1 sequence (Q06495 1-639): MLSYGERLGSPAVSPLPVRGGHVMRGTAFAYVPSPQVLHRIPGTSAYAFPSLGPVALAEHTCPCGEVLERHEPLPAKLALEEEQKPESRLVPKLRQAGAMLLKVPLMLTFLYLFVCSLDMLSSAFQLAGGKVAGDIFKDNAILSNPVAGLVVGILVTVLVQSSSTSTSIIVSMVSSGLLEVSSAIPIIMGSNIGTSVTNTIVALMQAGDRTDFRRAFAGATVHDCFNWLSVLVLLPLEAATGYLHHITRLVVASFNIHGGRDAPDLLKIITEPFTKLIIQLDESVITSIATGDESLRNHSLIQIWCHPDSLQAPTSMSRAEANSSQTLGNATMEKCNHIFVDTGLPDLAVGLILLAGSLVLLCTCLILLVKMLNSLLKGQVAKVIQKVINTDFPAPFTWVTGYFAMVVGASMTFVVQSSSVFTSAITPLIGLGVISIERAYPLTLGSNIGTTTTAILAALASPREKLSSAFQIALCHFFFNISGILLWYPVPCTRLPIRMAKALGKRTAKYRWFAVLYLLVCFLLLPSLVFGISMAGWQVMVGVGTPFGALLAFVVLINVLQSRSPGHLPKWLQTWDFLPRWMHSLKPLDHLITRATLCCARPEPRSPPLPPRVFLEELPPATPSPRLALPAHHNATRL
Protocol: T‐Rex™ Chinese Hamster Ovary cells (CHO; Thermo Fisher Scientific) stably expressing human, mouse, or rat NPT2b under a tetracycline‐inducible promoter were generated using standard cDNA transfection and clone selection procedures (see Supporting Information). Cells were plated in 96‐well CytoStar‐T® scintillating microplates and were incubated overnight in growth media plus 100 ng/ml of tetracycline to induce expression of NPT2b. The next day, cells were washed 3 times with 200 µl assay buffer (137 mM NaCl, 5.4 mM KCl, 2.8 mM CaCl2, 1.2 mM MgSO4, and 14 mM Tris‐HCl buffer, pH 7.5). LY3358966 serially diluted 1‐to‐3 in DMSO was added to cells with assay buffer. An equal volume of H3 ^33PO4 (PerkinElmer) in assay buffer supplemented with 5 µM potassium phosphate was then added to initiate radiolabeled phosphate (^33P‐phosphate) uptake. […] The plate was immediately read on a Wallac MicroBeta Trilux liquid scintillation counter. Percent inhibition at all concentrations tested was calculated, and IC50 values were then determined using a 4‐parameter logistic curve fitting equation.
Similar methods were used to measure the effects of LY3358966 on other transporters of interest, except that constitutive promoters were used to generate CHO cells over‐expressing human PiT1 and PiT2. The ^33P‐phosphate uptake was measured after 45 min at 20°C for the NPT2a, NPT2c, PiT1, and PiT2 assays. […]

[2] = tested on: intestinal phosphate absorption; assay: Recovery of radiolabeled phosphate in gastrointestinal tract of rats at 4 h; format: in vivo, rat; details: LY3358966 10 mg/kg
Protocol: Male Sprague Dawley rats, 260–287 g for the first study and 274–362 g for the second study, were fasted for 4 h (the first 4 h of the light cycle) then dosed with placebo, a 50 or 150 mg/kg sevelamer HCl water dispersion, LY3358966 SDD (10 mg/kg API) dissolved in water, or a combination of LY3358966 SDD and sevelamer HCl. Fifteen minutes later, the animals were dosed with radiolabeled phosphate as described above. In the first study, the animals were given free access to food, then feces were collected at 6, 24, and 48 h post radiolabeled phosphate dose. In the second study, the animals were fasted an additional 4 h, then feces, stomach, small intestine, and large intestine were individually collected. The gastrointestinal tract tissues and feces were digested overnight at 37°C in 1 N NaOH, and the recovered radioactivity was determined.

## CC1(C)CN(C(=O)NCCCCO)CCN1Cc1cccc(C(=O)Nc2sc3c(c2C(=O)Nc2cc(F)c(CCc4ccc(C(=O)O)cc4)c(F)c2)CCCC3)c1 [LY3358966, 4‐[2‐[2,6‐difluoro‐4‐[[2‐[[3‐[[4‐(4‐hydroxybutylcarbamoyl)‐2,2‐dimethyl‐piperazin‐1‐yl]methyl]benzoyl]amino]‐4,5,6,7‐tetrahydrobenzothiophene‐3‐carbonyl]amino]phenyl]ethyl]benzoic acid]
[1]; geometric mean, 45 min at 20°C
  IC50: 11 nM
[1]; ratio of IC50 of human NPT2a assay to that of human NPT2b assay
  Selectivity: 0.3
[2]; 4 h
  increase of 33P-phosphate recovery in the gastrointestinal tract over vehicle: 6.34%
[2]; 4 hours
  33P Recovered in G.I. Tract, Large Intestine (means ± SEM): 13.75 ± 2.83%
  33P Recovered in G.I. Tract, Small Intestine (means ± SEM): 15.51 ± 2.37%
  33P Recovered in G.I. Tract, Stomach (means ± SEM): 1.83 ± 0.41%
[2]; 4 hours, 10 mg/kg
  33P Recovered in Total G.I. Tract (means ± SEM): 31.09% and 31.09 ± 1.38%
